Data from patent publication US20170189391A1, “Protein kinase C inhibitor for treating triple-negative breast cancer” (Macau University of Science ang Technology, priority 2015, published 2017).

Tests used:
BT-549 [1] = assay: In vitro cell proliferation assay (SRB assay); type: cell-based; settings: Homo sapiens; BT-549 (TNBC), 72-hour treatment
Description: (§1) The anti-proliferative effects of tested agents on breast cancer cell lines were assessed by sulforhodamine B (SRB) colorimetric assay as previously described. Briefly, cells were seeded in 96-well plates in a volume of […] at densities of 5,000˜40,000 cells per well. After overnight incubation at 37° C. in a humidified incubator with 5% CO2, 100 ml medium containing agents (2 X indicated concentrations) were added. After 72-hour treatment, attached cells were fixed with 50 ml cold 50% (w/v) trichloroacetic acid (TCA) for 1 hour at 4° C. and then stained with 100 ml 0.4% (w/v) SRB. The absorbency at 515 nm was measured using SpectraMax 190 microplate reader (Molecular Devices) after solubilizing the protein-bound dye with 200 ml 10 mM Tris base solution (pH 10.5). The IC50 value was defined as the concentration required for a 50% reduction in cell growth.
(§2) To test in vitro anti-proliferative activity of chelerythrine on breast cancer cells, four TNBC cell lines (MDA-MB-231, BT-549, HCC1937 and MDA-MB-468) and four non-TNBC cell lines (MCF7, ZR-75-1, SK-BR-3 and MDA-MB-453) were treated with a series of chelerythrine concentrations ranging from […] for 72 hours. […] On the contrary, the tested non-TNBC cell lines were relatively resistant to chelerythrine treatment on compared with the TNBC cell lines.

HCC1937 [2] = assay: In vitro cell proliferation assay (SRB assay); type: cell-based; settings: Homo sapiens; HCC1937 (TNBC), 72-hour treatment
Description: as §1, §2

MCF7 = assay: In vitro cell proliferation assay (SRB assay); type: cell-based; settings: Homo sapiens; MCF7 (Non-TNBC), 72-hour treatment
Description: as §1, §2

MDA-MB-231 [3] = assay: In vitro cell proliferation assay (SRB assay); type: cell-based; settings: Homo sapiens; MDA-MB-231 (TNBC), 72-hour treatment
Description: as §1, §2

MDA-MB-468 [4] = assay: In vitro cell proliferation assay (SRB assay); type: cell-based; settings: Homo sapiens; MDA-MB-468 (TNBC), 72-hour treatment
Description: as §1, §2

SK-BR-3 = assay: In vitro cell proliferation assay (SRB assay); type: cell-based; settings: Homo sapiens; SK-BR-3 (Non-TNBC), 72-hour treatment
Description: as §1, §2

MDA-MB-453 = assay: In vitro cell proliferation assay (SRB assay); type: cell-based, human; parameters: inhibitory effect at the highest concentration tested: dose or concentration left out as unconfirmed
Description: as §1, §2

ZR-75-1 = assay: In vitro cell proliferation assay (SRB assay); type: cell-based, human; parameters: inhibitory effect at the highest concentration tested: dose or concentration left out as unconfirmed
Description: as §1, §2

[5] = test system: TNBC cell lines (MDA-MB-231, BT-549, HCC1937 and MDA-MB-468); assay: In vitro cell proliferation assay (SRB assay), four TNBC lines together; type: cell-based, human; settings: for cell growth: 5 mM (so in the source) chelerythrine
Description: as §1, with “After 72-hour treatment, attached cells were fixed with 50 ml cold 50% (w/v) trichloroacetic acid (TCA) for 1 hour at 4° C. and then stained with 100 ml 0.4% (w/v) SRB.” left out
as §2

[6] = test system: non-TNBC cell lines (MCF7, ZR-75-1, SK-BR-3 and MDA-MB-453); assay: In vitro cell proliferation assay (SRB assay), four non-TNBC lines together; type: cell-based, human
Description: as §1, §2

TNBC cells [7] = assay: Colony formation assay; type: cell-based, human; settings: chelerythrine 5 μM (FIG. 1C)
Description: (§3) Four non-triple-negative breast cancer (Non-TNBC) cell lines (MCF7, ZR-75-1, SK-BR-3 and MDA-MB-453) and four triple-negative breast cancer (TNBC) cell lines (MDA-MB-231, BT549, HCC1937 and MDA-MB-468) were used to determine the growth inhibition effect of chelerythrine. […] The cell number at each chelerythrine concentration is represented as a percentage of control (treatment without chelerythrine). Average values are calculated from three independent experiments performed in duplicate (n=3). […] The cell number at each time point is represented as a percentage of control (treatment without chelerythrine). Average values are calculated from three independent experiments performed in duplicate (n=3). […] Representative colony formation assay plates are shown, which are quantified by counting colony number (n=4). Data is shown as mean±SD. […] Cells were then washed with PBS, plated in drug-free medium in 6-well plates at densities of 2,000 cells/well and incubated for 7-10 days in the absence of drug. Colonies were stained with 0.2% (w/v) crystal violet in buffered formalin for 10 minutes. The number of colonies was counted.

non-TNBC cells [8] = assay: Colony formation assay; type: cell-based, human; settings: treatment for 48 hours, chelerythrine 5 μM (FIG. 1C)
Description: as §3

BT-549 [9] = assay: Flow-cytometric analysis of cell cycle; type: cell-based, human; settings: BT-549, chelerythrine 5 mM (so in the source), 24 hours
Description: (§4) Four Non-TNBC cell lines and four TNBC cell lines as mentioned above were treated with chelerythrine (CHE, 5 μM) for 24 hours. […] Average values are calculated from three independent experiments (n=3). Data is shown as mean±SD.
(§5) Flow cytometric analyses were performed to define the cell cycle distribution […] after treatment with […] chelerythrine. Cells were harvested, washed twice with PBS, resuspended in 0.5 ml PBS (1,000,000˜2,000,000 cells/ml). Then 4 ml 70% ethanol was added and the mixture was kept at −20° C. for 2 hours to fix the cells. Cells were stained for total DNA content with a solution containing […] propidium iodide, 200 μg/ml DNase-free RNase A, and 0.1% triton X-100 in PBS for 30 minutes at room temperature. Cell cycle distribution was analyzed by flow cytometry (BD Bioscience). The percentages of the total cell population in the four different phases (Sub-G0/G1, G0/G1, S, G2/M) of cell cycle was determined using FlowJo software.

HCC1937 [10] = assay: Flow-cytometric analysis of cell cycle; type: cell-based, human; settings: HCC1937, chelerythrine 5 mM (so in the source), 24 hours; 45.1% without treatment
Description: as §4, §5

MDA-MB-231 [11] = assay: Flow-cytometric analysis of cell cycle; type: cell-based, human; settings: MDA-MB-231, chelerythrine 5 mM (so in the source), 24 hours
Description: as §4, §5

MDA-MB-468 [12] = assay: Flow-cytometric analysis of cell cycle; type: cell-based, human; settings: MDA-MB-468, chelerythrine 5 mM (so in the source), 24 hours
Description: as §4, §5

non-TNBC cells [13] = assay: Flow-cytometric analysis of cell cycle; type: cell-based, human; settings: chelerythrine 5 mM (so in the source), 24 hours
Description: as §4, §5

all TNBC cell lines = assay: Flow-cytometric analysis of cell cycle, all TNBC lines; type: cell-based, human; settings: upon chelerythrine treatment, 24 hours
Description: as §4, §5

HCC1937 [14] = assay: Flow-cytometric analysis of apoptosis (Annexin V/PI); type: cell-based, human; settings: HCC1937, 24 hours, chelerythrine 5 μM (FIG. 3)
Description: (§6) Four Non-TNBC cell lines and four TNBC cell lines as mentioned above were treated with chelerythrine (CHE, 5 μM) for 24 hours. […] Reprehensive pictures are shown (400×). […] FIGS. 3C, 3D and 3E show the representative contour diagrams of FITC Annexin V/PI flow cytometry of cells. Fractions of apoptotic cells were quantified. Average values are calculated from three independent experiments (n=3). […] Apoptosis was analyzed by flow cytometry with Annexin V/PI staining. Representative contour diagrams and quantified data are shown. Average values are calculated from three independent experiments (n=3). Data is shown as mean±SD.
(§7) Cellular apoptosis was analyzed with BD Annexin V: Fitc Apoptosis Detection Kit I (BD Bioscience) by flow cytometry. Briefly cells were plated in 6-well plates (100,000˜400,000 cells/well) and treated with chelerythrine. At the indicated time point, cells were harvested, washed twice with cold PBS, and resuspended in 1X Binding Buffer at a concentration of 1,000,000 cells/ml. 100 μl cells were transferred to 1.5 ml conical tube and 5 μl FITC Annexin V and 5 μl propidium iodide were added. The mixture was gently vortexed and incubated at room temperature for 15 minutes in the dark, followed by adding 400 μl 1x Binding Buffer to each tube. Cells were filtered and analyzed by flow cytometry (BD Bioscience) within 1 hour. Total apoptotic cells (FITC Annexin V positive) were counted.

MDA-MB-231 [15] = assay: as above; type: cell-based, human; settings: MDA-MB-231, 24 hours, chelerythrine 5 μM (FIG. 3)
Description: as §6, §7

MDA-MB-468 [16] = assay: as above; type: cell-based, human; settings: MDA-MB-468, 24 hours, chelerythrine 5 μM (FIG. 3)
Description: as §6, §7

T-549 = assay: as above; type: cell-based, human; settings: T-549 (so in the source), 24 hours, chelerythrine 5 μM (FIG. 3)
Description: as §6, §7

four non-TNBC cell lines = assay: as above; type: cell-based, human; settings: same treatment, 24 hours
Description: as §6, §7

TNBC cells [17] = assay: Assessment of cell morphological changes (Hoechst 33258 staining); type: cell-based, human; settings: 24 hours
Description: as §6
(§8) Cells were plated in 12-well plates (80,000-300,000 cells/well) and then treated with […] chelerythrine for 24 hours. After incubation, cells were collected, washed with PBS and stained with Hoechst 33258 (11.1 mg/ml) in buffered formalin solution containing 5.6% NP-40. Living and apoptotic cells were visualized through DAPI filter of fluorescence inverted microscope (Leica DM2500 Fluorescence Microscope) at ×400 magnification.

non-TNBC cells [18] = assay: as above; type: cell-based, human; settings: 24 hours
Description: as §6, §8

TNBC cell lines = assay: Western blotting of cleaved PARP (cPARP); type: cell-based, human; settings: TNBC compared with non-TNBC cell lines, after chelerythrine treatment
Description: as §6
Protein samples were prepared by adding RIPA buffer with protease inhibitor cocktail (Roche) to cells and diluted in SDS-PAGE protein sample buffer. Samples were heated for 5 minutes at 95° C. before fractionation on SDS-polyacrylamide gels. The proteins were then transferred to Immobilon P (Millipore) and incubated with primary antibodies overnight at 4° C. The membranes were then washed with TBST and incubated with the appropriate horseradish peroxidase-conjugated secondary antibodies at room temperature. Proteins were visualized with SuperSignal West Dura Extended Duration Substrate or SuperSignal West Pico Chemiluminescent Substrate (Thermo Scientific).

`COc1ccc2c(c[n+](C)c3c4cc5c(cc4ccc23)OCO5)c1OC` [chelerythrine] was tested, and the IC50 (BT-549 [1]) was 2.6 µM, the IC50 (HCC1937 [2]) was 3.6 µM and the IC50 (MCF7) was > 10 µM. The IC50 (MDA-MB-231 [3]) was 3 µM, the IC50 (MDA-MB-468 [4]) was 4.2 µM and the IC50 (SK-BR-3) was > 10 µM. The IC50 (MDA-MB-453; Homo sapiens, MDA-MB-453 (Non-TNBC), 72-hour treatment) was > 10 µM, the “inhibitory effect at the highest concentration tested” value (MDA-MB-453; MDA-MB-453, highest concentration tested, 72 hours) was “did not show any inhibitory effect” and the IC50 (ZR-75-1; Homo sapiens, ZR-75-1 (Non-TNBC), 72-hour treatment) was > 10 µM. The “inhibitory effect at the highest concentration tested” value (ZR-75-1; ZR-75-1, highest concentration tested (so in the source), 72 hours) was “did not show any inhibitory effect”, the cell growth ([5]; 24 hour) was “significant reduction of cell growth” and the cell growth ([5]; 72 hour) was “almost died out”. For the same compound, the IC50 ([5]; Homo sapiens, range over MDA-MB-231, BT-549, HCC1937 and MDA-MB-468, 72 hours, read-out: IC50 values, growth of TNBC cell lines) was 2.6 to 4.2 µM, the “inhibition of cell growth” value ([6]; 5 mM (so in the source) chelerythrine, each time point, versus TNBC lines) was “much less inhibition of cell growth” and the IC50 ([6]; Homo sapiens, 72 hours, read-out: IC50 values of all of the four non-TNBC cell lines) was > 10 µM. For the same compound, the colony formation ability (TNBC cells [7]; treatment for 3 hours) was “dramatically decreased”, the Colony formation (TNBC cells [7]; treatment for 6 hours) was “almost no cells grew into colonies” and the colony formation ability (non-TNBC cells [8]) was “reserved largely of their colony formation ability”. The cell cycle progression (BT-549 [9]) was “no obvious changes”, the “percentage of cells in G0/G1 phase” value (HCC1937 [10]) was 52.9% and the cell cycle progression (MDA-MB-231 [11]) was “no obvious changes”. The cell cycle arrest (MDA-MB-468 [12]) was “marked cell cycle arrest at G2/M phase”, the cell cycle distribution (non-TNBC cells [13]) was “basically unchanged” and the “nuclei with sub-G0/G1 DNA content characteristic of apoptosis” value (all TNBC cell lines) was “substantial proportion”. For the same compound, the “mean percentages of apoptotic cells” value (HCC1937 [14]) was 22.2%, the “mean percentages of apoptotic cells” value (MDA-MB-231 [15]) was 67.8% and the “mean percentages of apoptotic cells” value (MDA-MB-468 [16]) was 35.3%. The “mean percentages of apoptotic cells” value (T-549) was 51.0%, the “apoptosis induction / viability” value (four non-TNBC cell lines) was “remained viable” and the apoptotic morphological changes (TNBC cells [17]) was “caused chromatin condensation and nuclear fragmentation”. For the same compound, the apoptotic morphological changes (non-TNBC cells [18]) was “not in non-TNBC cells” and the “cleaved nuclear poly (ADP-ribose) polymerase (cPARP), marker of apoptosis” value (TNBC cell lines) was “detection of the cleaved nuclear poly (ADP-ribose) polymerase”.
